Tests used:
[1] = system: Glutamyl aminopeptidase (Oryctolagus cuniculus); experiment: Inhibition of aminopeptidase A (APA) at 0.4 mM
[2] = target: Aminopeptidase B (Homo sapiens, UniProt Q9H4A4); experiment: Inhibition of arginylaminopeptidase (aminopeptidase B); set-up: species or system Oryctolagus cuniculus
Aminopeptidase B, sequence (Q9H4A4 whole entry): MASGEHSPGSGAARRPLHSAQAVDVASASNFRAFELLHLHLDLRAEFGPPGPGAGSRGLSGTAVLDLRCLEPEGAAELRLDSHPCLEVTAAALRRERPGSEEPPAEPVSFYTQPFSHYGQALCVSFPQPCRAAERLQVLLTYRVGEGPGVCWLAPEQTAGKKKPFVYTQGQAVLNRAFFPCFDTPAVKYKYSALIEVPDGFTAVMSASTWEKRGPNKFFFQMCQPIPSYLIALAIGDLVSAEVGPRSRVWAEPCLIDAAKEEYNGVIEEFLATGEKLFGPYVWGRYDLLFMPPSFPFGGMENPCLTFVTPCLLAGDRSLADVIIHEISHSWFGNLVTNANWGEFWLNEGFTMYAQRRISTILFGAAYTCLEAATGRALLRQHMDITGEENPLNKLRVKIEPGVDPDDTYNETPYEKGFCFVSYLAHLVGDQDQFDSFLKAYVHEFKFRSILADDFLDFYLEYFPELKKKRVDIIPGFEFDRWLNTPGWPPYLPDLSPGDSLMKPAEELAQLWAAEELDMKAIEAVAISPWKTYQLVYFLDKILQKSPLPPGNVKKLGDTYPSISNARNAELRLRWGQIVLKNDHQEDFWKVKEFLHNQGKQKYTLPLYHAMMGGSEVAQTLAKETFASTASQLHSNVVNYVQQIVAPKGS

| inhibition [1] [%] | Ki [2] [nM] | SMILES |
| --- | --- | --- |
| 0 | – | NC(CC(=O)O)Cc1ccccc1 (centres undefined) |
| 0 | – | NC(CC(=O)NO)Cc1ccccc1 (centres undefined) |
| – | 0.9 | NCCCCC(S)C(=O)O (centres undefined) |

| SMILES | inhibition [1] [%] | Ki [2] [nM] |
| --- | --- | --- |
| NC(Cc1ccccc1)CP(=O)(O)O (centres undefined) | 13 | – |

— ChEMBL document CHEMBL1127650, “Investigation of the active site of aminopeptidase A using a series of new thiol-containing inhibitors” (J Med Chem, 1994)
